Values of other authors in patent publication US20110092493A1, “Dose-controlled transdermal promethazine compositions and methods of use” (priority 2008, published 2011).
Where a name gives a salt, the structure may show the parent alone. Read-outs that look alike come from different tables or passages of the source.

Key:
[1] = following intramuscular injection
[2] = 50 mg applied to the wrist in topical pluronic lecithin organogel, 15 healthy volunteers
[3] = oral administration
[4] = not given; remark: listed apart in the source
[5] = not given; remark: listed apart in the source
[6] = overall, most common adverse events
[7] = both 50 mg suppository treatments (generic, brand-name) vs oral syrup (50 mg)

SMILES: CC(CN1c2ccccc2Sc2ccccc21)N(C)C (centres unmarked) [promethazine]
- plasma levels associated with adverse effects [1]: 48 ng/mL
- drowsiness, % of subjects [2]: 73%
- sedation, % of subjects [2]: 50%
- coefficient of variation for the area under the plasma concentration-versus-time curve (AUC) (50 mg suppository): greater than 84%
- mean AUC from 0 to 24 hours (AUC0-24) (50 mg suppository): 168 ng·h/mL
- coefficient of variation for the area under the plasma concentration-versus-time curve (AUC) (oral syrup (50 mg)): greater than 84%
- mean AUC from 0 to 24 hours (AUC0-24) (oral syrup (50 mg)): 268 ng·h/mL
- fraction of dose absorbed ([3]; on average): 88%
- absolute bioavailability ([3]; limited by first-pass clearance): 25%
- adverse event: somnolence ([4]; 25 mg suppository): 5%
- adverse event: somnolence ([4]; 50 mg oral): 22%
- adverse event: somnolence ([4]; 50 mg suppository): 17%
- adverse event: headache [4, 6]: 28%
- adverse event: somnolence [4, 6]: 35%

SMILES: CC(CN1c2ccccc2Sc2ccccc21)N(C)C (centres unmarked) [promethazine hydrochloride]
- differences in AUC0-24 ([5]; 50 mg suppository treatments vs oral syrup (50 mg)): no significant differences
- maximum promethazine concentration compared with oral syrup [5, 7]: lower
- time to maximum promethazine concentration compared with oral syrup [5, 7]: longer
